The source of these data is paper PMC12037037 (Proceedings of the National Academy of Sciences of the …, 2025).

The test system of data set [1] is panel of 55 central nervous system targets. In words: Competitive radioligand binding selectivity panel (Eurofins Discovery). On the procedure:
Figure S3. Selectivity profiles for (+)-JRT and (–)-JRT across 55 central nervous system targets. The effects of (+)- JRT (10 μM) and (–)-JRT (10 μM) on a wide range of targets were assessed by Eurofins Discovery. Data represent % inhibition of the binding of a radioactively labeled ligand specific for each target. Assays were conducted in duplicate and the results were averaged.
Data Analysis and Statistics. Treatments were randomized, and data were analyzed by experimenters blinded to treatment conditions. Statistical analyses were performed using GraphPad Prism (version 10.0.3) unless noted otherwise.
All comparisons were planned prior to performing each experiment. No data were excluded. Data are represented as mean ± SEM, unless noted otherwise, with asterisks indicating *p < 0.05, **p < 0.01, ***p < 0.001, and ****p < 0.0001. Details of all statistical tests are shown in SI Appendix, Table S1. […]
Both (+)-JRT and (–)-
JRT were synthesized in-house and judged to be analytically pure based on NMR and LC-MS data. For cell culture experiments, VEH = 0.1% (agonist studies) or 0.2% (antagonist studies) molecular biology grade dimethyl sulfoxide (Sigma-Aldrich). For in vivo experiments, compounds were administered i.p. at 5 mL/kg using 0.9% saline as the vehicle, unless noted otherwise. VEH = USP grade saline (0.9%). Stock solutions for behavioral assays were prepared fresh before use.
Fumarate salts of (+)-JRT and (–)-JRT were used for all biological studies unless noted otherwise.
Animals. All experimental procedures involving animals were approved by the Institutional Animal Care and Use Committee (IACUC) at the University of California, Davis, the Salk Institute, Weill Cornell Medicine, McLean Hospital (Harvard Medical School), or the Contract Research Organization (CRO) where the study was performed. All procedures involving animals adhered to principles described in the National Institutes of Health Guide for the Care and Use of Laboratory Animals.
Animals were either obtained from Jackson Laboratory (Sacramento, C.A.) or bred in-house unless noted otherwise. Power analyses were conducted to ensure appropriate sample sizes for all experiments involving animals. Animals were housed 2–5 animals of the same sex per cage on a 12h light/dark cycle and were given ad libitum access to food and water unless noted otherwise. The University of California, Davis, the Salk Institute, and Weill Cornell Medicine are accredited by the Association for Assessment and Accreditation of Laboratory Animal Care International (AAALAC). Whenever possible, both sexes were utilized. However, a single sex was utilized in some cases when 1) a contract research organization had only […]
Radioligand Binding Selectivity Panel. Competitive radioligand binding studies for (+)-JRT (10 μM) and (–)-JRT (10 μM) were performed across a panel of receptors at Eurofins Discovery. Experiments were performed using the free bases of […]
radioligand and source of receptor (5,6,7,8,9,10,11,12).
Radioligand Binding Assays (5-HT2AR and 5-HT2CR). The 5-HT2AR and 5-HT2CR competitive radioligand binding assays were performed at Epics Therapeutics S.A. (Belgium, FAST-0505B) using conventional methods. Experiments were performed using the free bases of (+)-JRT and (–)-JRT. […] Nonspecific binding was determined by co-incubation with 200-fold excess of cold competitor DOI. […]

The target of data set [2] is 5-HT2 receptors (5-HT2A, 5-HT2B, 5-HT2C). Briefly: Competitive radioligand binding assays at 5-HT2 receptors. The note with it: read-out: Ki range, entire family of 5-HT2 receptors; free base.
Description: Radioligand binding (RLB) (top) and IP1 functional assays
(bottom) for 5-HT2A (A), 5-HT2B (B), and 5-HT2C (C) receptors. (D) The PathHunter® β-arrestin assay was used to
HT2A receptors. Data represent the mean ± SEM of 2–6 biological replicates (performed in duplicate), with the sole
exception that the β-arrestin data for (–)-JRT represents a single biological replicate averaged from 2 technical replicates.
Drugs. Many of the drugs used in these studies were purchased from commercial sources including (+)-amphetamine sulfate (Sigma Aldrich, 1180004), ketamine hydrochloride (Spectrum, K1068), and ketanserin (APExBIO, B2248).
Data set [3] has as its target psychLight S242A^5.46 (murinized variant) (Homo sapiens, UniProt P28223, S242A). In words: PsychLight assay, S242A^5.46 mutant. The format is cell-based.
Protocol: PsychLight Assays. Psychlight assays were performed using a previously published method (15) with slight modifications.
Briefly, a solution of PSYLI2 cells suspended in DMEM containing 10% FBS with 5% penicillin-streptomycin was added to
poly-D-lysine-coated glass bottom 96-well plates. The cells were plated at a density of 60,000 cells/well for the inner 60
wells and 90,000 cells/well for the outer 36 wells and incubated at 37°C with 5% CO2 for 18–24 h prior to each experiment.
On the day of each experiment, the DMEM solution was replaced with 100 µL/well Hoechst solution (2 µM in HBSS) and
incubated for 30 min at 37°C with 5% CO2. Plates were then washed 3x 200 µL HBSS and replaced with 160 µL/well of
assay buffer (HBSS with 0.5 mM HEPES buffer, adjusted to pH = 7.4 with 1 M NaOH) and incubated for 30 min (37°C, 5%
CO2). The cells were then imaged on a Thermo Scientific CellInsight CX7 LZR High Content Analysis Platform at 10X
(37°C, 5% CO2). Images from nine regions of interest (ROI) per well were obtained following the default ROI pattern with
no bias to location and no overlap of the ROIs. Baseline images were collected prior to drug addition. Following baseline
imaging, cells were treated with 40 µL of drugs at the indicated concentrations (final solutions contained 0.2% DMSO) and
incubated (37°C, 5% CO2) for 1 h before treatment images were acquired using identical parameters. In the case of
activation was quantified using the built-in Target Validation Assay (version 6.0.1.4021) on the Thermo Scientific HCS Studio
Cellomics data analysis program. Primary objects were identified and validated using the Hoechst stain and secondary
objects (psychLight signal) were defined as signal within 12 pixels of the primary objects. PsychLight signal was calculated
as a ΔF/F according to the following equation:
ΔF = psychLight activation (treatment) − psychLight activation (baseline)
F psychLight activation (baseline)
PsychLight S242A5.46 plasmid construction and transfection. To introduce the serine to alanine mutation in […]
The subject of data set [4] is C57BL/6J mice. In words: Novelty-induced locomotion. As to conditions: 1 mg/kg. The format is in vivo.

SMILES strings stand for the structures.

Chain of psychLight S242A^5.46 (murinized variant) (P28223 with tags, fused parts or gaps S242A): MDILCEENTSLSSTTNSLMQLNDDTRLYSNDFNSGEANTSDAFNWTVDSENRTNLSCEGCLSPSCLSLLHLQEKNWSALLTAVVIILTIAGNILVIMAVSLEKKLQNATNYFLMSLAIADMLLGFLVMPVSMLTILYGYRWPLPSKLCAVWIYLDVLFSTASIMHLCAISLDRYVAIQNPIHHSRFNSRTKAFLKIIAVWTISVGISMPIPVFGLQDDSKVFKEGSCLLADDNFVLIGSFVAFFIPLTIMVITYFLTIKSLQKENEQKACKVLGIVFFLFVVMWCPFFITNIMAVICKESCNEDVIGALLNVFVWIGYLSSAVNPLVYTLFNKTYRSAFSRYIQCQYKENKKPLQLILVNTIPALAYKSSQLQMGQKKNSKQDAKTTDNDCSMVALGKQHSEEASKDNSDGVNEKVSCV
Chain of psychLight S242A^5.46 (murinized variant) (P42212 with tags, fused parts or gaps partner): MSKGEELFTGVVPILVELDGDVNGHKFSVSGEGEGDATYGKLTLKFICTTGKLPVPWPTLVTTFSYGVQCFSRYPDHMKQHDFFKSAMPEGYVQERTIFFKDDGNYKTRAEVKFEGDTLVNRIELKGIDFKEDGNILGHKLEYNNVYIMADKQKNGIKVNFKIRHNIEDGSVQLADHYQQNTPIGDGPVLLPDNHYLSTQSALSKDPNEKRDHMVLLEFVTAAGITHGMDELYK

With `CCN(CC)C(=O)[C@@H]1C=C2c3cccc4ccn(c34)C[C@H]2N(C)C1` [(+)-JRT], in data set [1] (10 μM, free bases), the “Selectivity across panel of 55 central nervous system targets” value is reported as “highly selective for a subset of serotonin receptors”. In addition, the “Affinity for dopamine, histamine, or adrenergic receptors” value in data set [1] (radioligand binding, unlike LSD) is “neither of these compounds exhibited affinity”. The “Affinity for dopamine, histamine, muscarinic, and adrenergic receptors” value in data set [1] (unlike CLZ) is reported as “lacks affinity”. Moreover, the Ki (commonly the equilibrium dissociation constant of an inhibitor or competing ligand from its target) in data set [2] lay in the range of 2 to 184 nM. Further, the EC50 (commonly the concentration needed to bring the measured effect to its halfway point) is 39 nM in data set [3] (psychLight (S242A^5.46): EC50, agonist mode) and 473 nM in data set [3] (psychLight (S242A^5.46): EC50, antagonist mode, cotreated with 10 μM serotonin (5-HT + compound)). In addition, the Emax (usually the greatest response seen or fitted, relative to the assay's reference) in data set [3] (read-out: psychLight (S242A^5.46): EMax) worked out at 32%. Moreover, the Effect on locomotion result in data set [4] (novel arena 30 min) was “does not impact locomotion”. Moreover, the Serotonin syndrome-like responses entry in data set [4] (backward walking, forepaw treading, hind limb abduction, low body posture, Straub tail, tremor) is given as “does not impact locomotion (SI Appendix, Fig. S10) or produce any serotonin syndrome-like responses”.
